From patent publication US10258598B2, “Compounds for use in the prevention or treatment of cancer” ([…], priority 2014, dated 2019)

Legend:
[1] = tested on: tetrabenazine-induced learning deficit; assay: Shuttle box: conditioned avoidance reflex, antagonism of tetrabenazine-induced learning deficit; format: in vivo, rat; conditions: for very high dose range effective in antagonizing the tetrabenazine-induced learning deficit: attributed to inhibition of MAO-A; for optimal dose that exerted the specific enhancer effect: rats given 1 mg/kg tetrabenazine s.c. one hour prior to training
Experimental: In a modified version of the shuttle box the acquisition of a two-way conditioned avoidance reflex (CAR) was analyzed during 5 consecutive days. The rat was put in a box divided inside into two parts by a barrier with a small gate in the middle, and the animal was trained to cross the barrier under the influence of a conditioned stimulus (CS, light flash). […] One trial consisted of 10 s intertrial interval, followed by 20 s CS. The last 5 s of CS overlaped the 5 s US. At each learning session, the number of CARs, EFs and intersignal reactions (IRs) are automatically counted and evaluated by multi-way ANOVA.
Tetrabenazine-treatment (1 mg/kg s.c.) depletes at least 90% of norepinephrine and dopamine from their stores in the nerve terminals of the catecholaminergic neurons in the brain stem. Due to the weak performance of the catecholaminergic brain engine, the activation of the cortical neurons remains below the level required for the acquisition of a CAR. The learning deficit caused by tetrabenazine-treatment can be antagonized by the administration of a synthetic CAE substance or an A-type MAO inhibitor, whereas selective inhibition of B-type MAO or inhibition of the reuptake of catecholamines and/or serotonin is ineffective (Knoll et al., 1992).

Daoy HTB-186 cell line = assay: MTT proliferation assay, Daoy medulloblastoma cells; format: cell-based, human; conditions: 72 hours; for proliferation of cultured cells, monotherapy: nine concentrations between 10^-14 and 10^-6 M, MTT
Experimental: Human medulloblastoma cell line, Daoy was purchased from ATCCC, UW-228 was obtained from the courtesy of Professor Silber (University of Washington, Seattle, Wash., USA).
Daoy and UW-228-2 cell lines were maintained in culture medium (each 500 ml Minimum Essential Medium Eagle, Alpha Modification (M8042, Sigma, St Louis, USA) with 50 ml FCS (Gibco), 40 mg Gentamicin (Sandoz), 5 ml sodium-pyruvate (S8636, Sigma, St Louis, USA), 5 ml non-essential-amino acid solution (M7145, Sigma, St Louis, USA), 10 ml L-glutamin (Sigma, St Louis, USA) at 37° C. in humified 5% CO2.
In each well 3×10^3 Daoy or UW-228-2 cells were seeded in 96-well plates (Sarstedt), solved in 100 µl of its own medium with 10% FCS. 24 hours after seeding, cells were treated for 72 hours by drugs solved in further 100 μl medium. First, both cell lines were treated by (−)-BPAP and (−)-deprenil in monotherapy to determine its dose-effect curves in concentration of 10^−6, 10^−7, […], 10^−9, 10^−10, 10^−11, 10^−12, 10^−13 and 10^−14 M. In combined treatment 10^−3, 3.3×10^−4, […] and 3.7×10^−5 M of temozolomide (Schering Plough, USA) or 0.04, 0.2, 1, 5 μM of Cisplatin (Ebewe Pharma, Austria) or 0.04, 0.2, 1, 5 μM of etoposide (Ebewe Pharma, Austria) or 10^−7, 10^−6, 10^−5 and 10^−4 μM (UW228-2) or 0.001, 0.005, 0.025 and 0.125 μM (Daoy) of Vincristin (Richter Gedeon, Hungary) were applied in monotherapy or combined with 10^−13 or 10^−8 M of (−)-BPAP or (−)-deprenil.
Cell proliferation was evaluated by MTT (3-(4,5-Dimethylthiazol-2-yl)-2,5-diphenyltetrazolium bromide) assay (M5655, Sigma) after 72-hour treatment by the method described in manufacturer's protocol.

lung carcinoma = assay: Longevity study on FVB/N mice: spontaneous lung carcinoma at autopsy; format: in vivo; conditions: for Number of detected lung carcinoma: 18 months, saline 3 of 4
Experimental: Five groups of mice are treated daily from sexual maturity with two different doses of
(−)-deprenyl and (−)-BPAP, respectively.
Group 2: BPAP low dose: 0.0001 mg/kg (−)-BPAP
Group 3: BPAP high dose: 0.05 mg/kg (−)-BPAP
A total of 172 mice entered the experiments. Body weight is measured bimonthly.
For monitoring, we planned to sacrifice mice from each group at 6-month, 1-year, 1.5-year and 2-year time-points; the rest of the animals are kept until spontaneous death.
The results are shown in Table 4 and on FIGS. 19 and 20. Significance levels were calculated with two-sided Chi-square test.

fibromyxosarcoma = assay: Longevity study: manifestation of subcutaneous fibromyxosarcoma (TMS effect); format: in vivo, Wistar rats; conditions: for month in which the last animal manifested the tumor / rats that manifested the tumor to the end of the 32nd month of age / rats that manifested the tumor when the group completed the 30th month of life / age at which the first animal manifested the tumor: N=40; for rats that manifested the tumor to the end of the 32nd month of age / rats that manifested the tumor when the group completed the 30th month of life: saline 20 rats; for age at which the first animal manifested the tumor: saline: 11th month; for span of time from tumor manifestation until death, versus saline: chronic treatment, One-way ANOVA (FIG. 13)
Experimental: The longevity study was performed on 200 male rats received from the breeding colony of the Semmelweis University. The rats were born at the end of February of 2010. After 2-month acclimation period the rats were divided randomly into 5 even groups. The longevity study started at the beginning of May 2010. Animals were observed until their natural deaths. The data in this study represent the changes observed until Oct. 31, 2012, since in the saline-treated group the last animal died on Oct. 31, 2012. As will be shown later a few rats in the enhancer-treated groups were still alive on Nov. 1, 2012.
During the longevity study 5 rats were housed together in polycarbonate cages (height: 18 cm; wide: 42 cm; length: 44 cm) with a stainless steel on the top. Cage bedding was renewed 3 times a week (Monday, Wednesday and Friday). Bodyweight was measured once every month. The treatment started at the end of the second month of their age. […] To avoid the mixing of the groups and individuals, saline-treated rats were signed blue from 1 to 40; D-treated rats were signed green from 1 to 80 (1-40: rats treated with 0.1 mg/kg and 41-80: rats treated with 0.001 mg/kg); B-treated rats were signed black from 1 to 80 (1-40: rats treated with 0.05 mg/kg and 41-80: rats treated with 0.0001 mg/kg).
We carefully observed the appearance of the subcutaneous tumor and followed the development of the tumor until death. Histological analysis was performed post mortem on several rats taken from each group as examples.
The subcutaneous tumors developed in the rats were measured by the two largest diameters. After sacrificing the animals, the tumors were removed, photographs were taken. Tissues were fixed immediately after removal in 10% neutral formalin (in PBS, pH7.0) for 24 hours at room temperature, dehydrated and embedded in paraffin. 3-4 micrometer thick sections were cut and stained by hematoxylin and eosin (HE) as a routine.
Significance in the performance between the groups in the shuttle box was evaluated by multi-factor analysis of variance (ANOVA). Significance regarding the span of time from tumor manifestation until death in rats and regarding aging related changes in bodyweight treated chronically with the enhancer substances was analyzed by One-way ANOVA. Statistical analysis of survival rate and tumor manifestation was performed by the Kaplan-Meier method.

## CCCN[C@H](CCC)Cc1cc2ccccc2o1 [(−)-BPAP, (R)-1-(benzofuran-2-yl)-2-propylamino pentane]
[1]
  very high dose range effective in antagonizing the tetrabenazine-induced learning deficit: 2000 to 10000 µg/kg
  optimal dose that exerted the specific enhancer effect: 0.1 µg/kg
[1]; rats given 1 mg/kg tetrabenazine s.c., for Deprenyl the less effective dose was chosen
  dose with the non-specific enhancer effect selected for the longevity study: 50 µg/kg
Daoy HTB-186 cell line; 10^-13 or 10^-8 M combined with temozolomide, Cisplatin, etoposide or Vincristin
  effectiveness of tumor-cell proliferation inhibiting agents in combination: did not change the effectiveness
Daoy HTB-186 cell line
  proliferation of cultured cells, monotherapy: did not inhibit the proliferation
Daoy HTB-186 cell line; listed as BPAP
  proliferation of cultured cells, monotherapy: In none of the applied concentrations
Lung carcinoma; 0.0001 mg/kg daily, 4 dissected mice
  Number of detected lung carcinoma: 0
Lung carcinoma; 0.05 mg/kg daily, 4 dissected mice
  Number of detected lung carcinoma: 1
Lung carcinoma; specific enhancer (extremely low) dose, 18 months daily treatment
  manifestation of lung carcinoma: completely prevented
fibromyxosarcoma; 0.0001 mg/kg, Kaplan-Meier, P<0.001 (FIG. 12)
  tumor manifestation suppressing (TMS) effect versus saline: significantly decreased
fibromyxosarcoma; 0.0001 mg/kg, Kaplan-Meier, P<0.001 (FIG. 12), listed as BPAP
  tumor manifestation suppressing (TMS) effect versus saline: suppressed the manifestation of the fibromyxosarcoma significantly
fibromyxosarcoma; 0.0001 mg/kg
  month in which the last animal manifested the tumor: 31 month
  rats that manifested the tumor to the end of the 32nd month of age: 8 rats
  age at which the first animal manifested the tumor: 20 month
fibromyxosarcoma; 0.0001 mg/kg, P<0.001
  rats that manifested the tumor when the group completed the 30th month of life: 8 rats
fibromyxosarcoma; 0.0001 mg/kg, listed as BPAP
  age at which the first animal manifested the tumor: 25 month
fibromyxosarcoma; 0.05 mg/kg, Kaplan-Meier, P<0.001 (FIG. 11)
  tumor manifestation suppressing (TMS) effect versus saline: significantly decreased
fibromyxosarcoma; 0.05 mg/kg, Kaplan-Meier, P<0.001 (FIG. 11), listed as BPAP
  tumor manifestation suppressing (TMS) effect versus saline: suppressed the manifestation of the fibromyxosarcoma significantly
fibromyxosarcoma; 0.05 mg/kg
  month in which the last animal manifested the tumor: 29 month
  rats that manifested the tumor to the end of the 32nd month of age: 7 rats
  age at which the first animal manifested the tumor: 13 month
fibromyxosarcoma; 0.05 mg/kg, P<0.001
  rats that manifested the tumor when the group completed the 30th month of life: 7 rats
fibromyxosarcoma
  span of time from tumor manifestation until death, versus saline: no significant difference

## C#CCN(C)[C@H](C)Cc1ccccc1 [(−)-Deprenyl, (R)—N-methyl-N-(1-phenylpropan-2-yl)prop-2-yn-1-amine]
[1]; FIG. 3
  form of the dose-effect relation of the enhancer effect: bi-modal, bell-shaped dose-effect-relation
[1]
  very high dose range effective in antagonizing the tetrabenazine-induced learning deficit: 5000 to 10000 µg/kg
  optimal dose that exerted the specific enhancer effect: 1 µg/kg
Daoy HTB-186 cell line; listed as (−)-deprenyl
  proliferation of cultured cells, monotherapy: did not inhibit the proliferation
Daoy HTB-186 cell line; listed as Deprenyl
  proliferation of cultured cells, monotherapy: In none of the applied concentrations
Lung carcinoma; 0.001 mg/kg daily, 2 dissected mice
  Number of detected lung carcinoma: 0
Lung carcinoma; 0.1 mg/kg daily, 4 dissected mice
  Number of detected lung carcinoma: 1
fibromyxosarcoma; 0.001 mg/kg, Kaplan-Meier (FIG. 10)
  tumor manifestation suppressing (TMS) effect versus saline: not significant
fibromyxosarcoma; 0.001 mg/kg
  month in which the last animal manifested the tumor: 29 month
  rats that manifested the tumor to the end of the 32nd month of age: 15 rats
  age at which the first animal manifested the tumor: 12 month
fibromyxosarcoma; 0.1 mg/kg s.c. 3 times a week
  age at which the first animal manifested the tumor: 16 month
fibromyxosarcoma; 0.1 mg/kg, Kaplan-Meier, P<0.01 (FIG. 9), listed as (−)-deprenyl
  tumor manifestation suppressing (TMS) effect versus saline: significantly decreased
fibromyxosarcoma; 0.1 mg/kg, Kaplan-Meier, P<0.01 (FIG. 9), listed as Deprenyl
  tumor manifestation suppressing (TMS) effect versus saline: suppressed the manifestation of the fibromyxosarcoma significantly
fibromyxosarcoma; 0.1 mg/kg
  month in which the last animal manifested the tumor: 32 month
  rats that manifested the tumor to the end of the 32nd month of age: 11 rats
fibromyxosarcoma; 0.1 mg/kg, P<0.01
  rats that manifested the tumor when the group completed the 30th month of life: 11 rats
fibromyxosarcoma
  span of time from tumor manifestation until death, versus saline: no significant difference
